Results as given in ChEMBL document CHEMBL1201862, “PubChem BioAssay data set” (2004).
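Cultured in 96-well plates, cells were exposed to test compound for 48 hours across five concentrations. Abbreviation: GI50, concentration required for 50% inhibition of growth.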 Activity calls are given as the source filed them. Cut-off read from the data, not from the text of the source: active = GI50 up to about 1.1 µM and inactive = higher.

What was measured:
Assay in all cases: NCI anticancer screen, dose series, 48 h
MDA-MB-435 = test system: MDA-MB-435
PC-3 = test system: PC-3
MDA-MB-231 = test system: MDA-MB-231
MDA-N = test system: MDA-N
SK-MEL-2 = test system: SK-MEL-2
SNB-75 = test system: SNB-75
MCF7 = test system: MCF7
HL-60 = test system: HL-60
Hs-578T = test system: Hs-578T
OVCAR-5 = test system: OVCAR-5
T47D = test system: T47D
SR = test system: SR
SK-MEL-28 = test system: SK-MEL-28
UO-31 = test system: UO-31
NCI/ADR-RES = test system: NCI/ADR-RES
SK-MEL-5 = test system: SK-MEL-5

Measured: GI50

O=C(O)/C(Cc1ccnc2ccccc12)=N\O
inactive: MDA-MB-435 > 100 µM | PC-3 > 100 µM | MDA-MB-231 > 100 µM | MDA-N > 100 µM | SK-MEL-2 > 100 µM | SNB-75 > 100 µM | MCF7 > 100 µM | HL-60 > 100 µM | Hs-578T > 100 µM | OVCAR-5 > 100 µM | T47D > 100 µM | SR > 100 µM | SK-MEL-28 > 100 µM | UO-31 > 100 µM | NCI/ADR-RES > 100 µM | SK-MEL-5 > 100 µM

Cc1ccc2oc3c(ccc(=O)n3C)c(=O)c2c1
inactive: MDA-MB-435 > 100 µM | PC-3 > 100 µM | MDA-MB-231 > 100 µM | MDA-N > 100 µM | SK-MEL-2 > 100 µM | SNB-75 > 100 µM | MCF7 > 100 µM | HL-60 > 100 µM | Hs-578T > 100 µM | OVCAR-5 > 100 µM | T47D > 100 µM | SR > 100 µM | SK-MEL-28 > 100 µM | UO-31 > 100 µM | NCI/ADR-RES > 100 µM | SK-MEL-5 > 100 µM

COC(=O)c1ccccc1/N=C(/NC1CCCCCC1)NS(=O)(=O)c1ccc(C)cc1
inactive: MDA-MB-435 > 100 µM | PC-3 > 100 µM | MDA-MB-231 76.9 µM | MDA-N > 100 µM | SK-MEL-2 > 100 µM | SNB-75 > 100 µM | MCF7 99.1 µM | HL-60 96.2 µM | Hs-578T > 100 µM | OVCAR-5 > 100 µM | T47D > 100 µM | SR > 100 µM | SK-MEL-28 > 100 µM | UO-31 > 100 µM | NCI/ADR-RES > 100 µM | SK-MEL-5 > 100 µM

OC1(c2ccccc2)CC2CCC(C1)N2CCc1ccccc1 (stereo not drawn)
inactive: MDA-MB-435 55.5 µM | PC-3 41.6 µM | MDA-MB-231 73.6 µM | MDA-N 56.8 µM | SK-MEL-2 > 100 µM | SNB-75 > 100 µM | MCF7 28.6 µM | HL-60 58.9 µM | Hs-578T 5.27 µM | OVCAR-5 26.1 µM | T47D 45 µM | SR > 100 µM | SK-MEL-28 68.4 µM | UO-31 28.1 µM | NCI/ADR-RES > 100 µM | SK-MEL-5 13.7 µM

COC(=O)c1cc(NC2OCC(OC(C)=O)C(OC(C)=O)C2OC(C)=O)nc(SC)c1C(=O)OC (stereo not drawn)
inactive: MDA-MB-435 > 100 µM | PC-3 > 100 µM | MDA-MB-231 > 100 µM | MDA-N > 100 µM | SK-MEL-2 > 100 µM | SNB-75 49.9 µM | MCF7 > 100 µM | HL-60 74 µM | Hs-578T > 100 µM | OVCAR-5 > 100 µM | T47D > 100 µM | SR > 100 µM | SK-MEL-28 > 100 µM | UO-31 > 100 µM | NCI/ADR-RES > 100 µM | SK-MEL-5 > 100 µM

CN1c2ccccc2C(=O)NC12CCN(CCCC(=O)c1ccc(F)cc1)CC2
inactive: MDA-MB-435 56.8 µM | PC-3 78.2 µM | MDA-MB-231 40.9 µM | MDA-N 88.7 µM | SK-MEL-2 > 100 µM | SNB-75 71.6 µM | MCF7 55 µM | HL-60 30.7 µM | Hs-578T > 100 µM | OVCAR-5 > 100 µM | T47D 29 µM | SR 32.4 µM | SK-MEL-28 70.1 µM | UO-31 80.4 µM | NCI/ADR-RES > 100 µM | SK-MEL-5 26.1 µM

O=c1cc(-c2cc(O)c(O)c(-c3c(O)cc4oc(-c5ccc(O)c(O)c5)cc(=O)c4c3O)c2)oc2cc(O)cc(O)c12
inactive: MDA-MB-435 > 25 µM | PC-3 > 25 µM | MDA-MB-231 > 25 µM | MDA-N > 25 µM | SK-MEL-2 > 25 µM | SNB-75 24.9 µM | MCF7 > 25 µM | HL-60 > 25 µM | Hs-578T > 25 µM | OVCAR-5 > 25 µM | T47D 11.3 µM | SR > 25 µM | SK-MEL-28 > 25 µM | UO-31 > 25 µM | NCI/ADR-RES > 25 µM | SK-MEL-5 > 25 µM

CC1CCC2N(C1)CC1C3(O)CC45OC6(O)C(O)CCC4(C)C6CCC5C3(O)CC(O)C1(O)C2(C)O (stereo not drawn)
inactive: MDA-MB-435 > 100 µM | PC-3 > 100 µM | MDA-MB-231 > 100 µM | MDA-N > 100 µM | SK-MEL-2 > 100 µM | SNB-75 > 100 µM | MCF7 > 100 µM | HL-60 > 100 µM | Hs-578T > 100 µM | OVCAR-5 > 100 µM | T47D > 100 µM | SR > 100 µM | SK-MEL-28 > 100 µM | UO-31 > 100 µM | NCI/ADR-RES > 100 µM | SK-MEL-5 > 100 µM

COC(=O)[C@@H]1C=C[C@H](NC(C)=O)C1
inactive: MDA-MB-435 > 100 µM | PC-3 > 100 µM | MDA-MB-231 > 100 µM | MDA-N > 100 µM | SK-MEL-2 > 100 µM | SNB-75 > 100 µM | MCF7 > 100 µM | Hs-578T > 100 µM | OVCAR-5 > 100 µM | T47D > 100 µM | SR > 100 µM | SK-MEL-28 > 100 µM | UO-31 > 100 µM | NCI/ADR-RES > 100 µM | SK-MEL-5 > 100 µM
